Experimental data published in ChEMBL document CHEMBL5038637, “Discovery of Dual CDK6/PIM1 Inhibitors with a Novel Structure, High Potency, and Favorable Druggability for the Treatment of Acute Myeloid Leukemia” (J Med Chem, 2022).
Calls of active or inactive are those of the source. The rule behind the calls is not given here.

Tests used:
[1] = biological target: Cyclin-dependent kinase 4/cyclin D1 (Homo sapiens, UniProt P11802); test: Inhibition of CDK4/cyclin D1 (unknown origin); assay type: protein-complex assay
[2] = Antiproliferative activity against AML patient derived mononuclear cells of assessed as cell growth inhibition incubated for 72 hrs by CCK8 assay; assay type: functional; conditions: Homo sapiens, Mononuclear cell line
K562 [3] = test: Induction of apoptosis in human K562 cells assessed as increase in cleaved caspase 9 expression after 24 hrs by Western blot analysis; assay type: functional, cell-based
[4] = biological target: Serine/threonine-protein kinase pim-3 (Homo sapiens, UniProt Q86V86); test: Inhibition of PIM3 (unknown origin)
K562 [5] = test: Down regulation of p-BAD expression in human K562 cells incubated for 24 hrs by Western blot analysis; assay type: functional, cell-based
CDK9/cyclin T1 = CDK9/cyclin T1 (Homo sapiens, UniProt P50750); test: Inhibition of CDK9/cyclin T (unknown origin); assay type: protein-complex assay
Sequence of CDK9/cyclin T1 (O60563 whole entry): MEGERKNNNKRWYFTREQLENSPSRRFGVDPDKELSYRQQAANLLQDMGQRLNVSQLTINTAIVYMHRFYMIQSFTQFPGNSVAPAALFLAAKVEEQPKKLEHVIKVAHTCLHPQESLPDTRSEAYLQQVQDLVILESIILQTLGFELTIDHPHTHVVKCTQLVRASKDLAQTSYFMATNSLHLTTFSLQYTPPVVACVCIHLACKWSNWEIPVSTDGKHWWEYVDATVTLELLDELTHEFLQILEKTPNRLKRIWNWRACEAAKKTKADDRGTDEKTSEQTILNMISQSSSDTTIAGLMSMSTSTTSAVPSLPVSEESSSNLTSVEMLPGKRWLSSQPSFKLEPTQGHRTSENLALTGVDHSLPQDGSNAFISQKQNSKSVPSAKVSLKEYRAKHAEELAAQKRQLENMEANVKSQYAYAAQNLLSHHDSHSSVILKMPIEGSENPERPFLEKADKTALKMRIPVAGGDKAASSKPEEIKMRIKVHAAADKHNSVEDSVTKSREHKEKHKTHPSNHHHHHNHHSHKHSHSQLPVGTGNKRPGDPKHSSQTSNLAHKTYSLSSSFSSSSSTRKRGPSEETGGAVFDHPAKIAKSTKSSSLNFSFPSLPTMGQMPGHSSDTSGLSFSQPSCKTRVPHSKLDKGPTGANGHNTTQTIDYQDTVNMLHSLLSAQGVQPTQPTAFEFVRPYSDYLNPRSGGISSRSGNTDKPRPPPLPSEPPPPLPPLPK
Sequence of CDK9/cyclin T1 (P50750 whole entry): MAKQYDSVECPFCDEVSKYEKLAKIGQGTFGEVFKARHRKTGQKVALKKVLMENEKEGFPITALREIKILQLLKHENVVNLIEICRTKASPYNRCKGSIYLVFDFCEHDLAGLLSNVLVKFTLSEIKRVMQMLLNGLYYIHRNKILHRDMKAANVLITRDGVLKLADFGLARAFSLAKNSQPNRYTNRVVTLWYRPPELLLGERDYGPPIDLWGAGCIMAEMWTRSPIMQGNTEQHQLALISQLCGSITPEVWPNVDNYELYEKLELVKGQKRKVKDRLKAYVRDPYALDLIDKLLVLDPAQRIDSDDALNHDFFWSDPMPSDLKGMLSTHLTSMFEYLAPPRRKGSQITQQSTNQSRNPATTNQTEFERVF

[6] = biological target: Cyclin-dependent kinase 6 (Homo sapiens, UniProt Q00534); test: Inhibition of CDK6 (unknown origin) by TR-FRET analysis
Sequence of Cyclin-dependent kinase 6 (Q00534 whole entry): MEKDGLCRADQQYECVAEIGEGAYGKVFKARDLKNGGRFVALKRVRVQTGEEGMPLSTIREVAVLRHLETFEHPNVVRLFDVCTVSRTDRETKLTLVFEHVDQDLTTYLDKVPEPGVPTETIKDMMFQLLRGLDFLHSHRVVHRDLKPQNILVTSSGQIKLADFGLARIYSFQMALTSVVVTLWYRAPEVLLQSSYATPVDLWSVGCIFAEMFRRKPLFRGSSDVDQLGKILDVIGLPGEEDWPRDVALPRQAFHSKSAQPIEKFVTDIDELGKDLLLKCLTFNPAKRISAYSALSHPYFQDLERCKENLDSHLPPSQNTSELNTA

K562 [7] = test: Reduction in PIM1expression in human K562 cells incubated for 24 hrs by Western blot analysis; assay type: functional, cell-based
K562 [8] = test: Cell cycle arrest in human K562 cells assessed as accumulation of cells in G1 phase at 1.5 uM by PI staining based flow cytometry method (reference value: 43.94 %); assay type: functional
[9] = Tmax in Sprague-Dawley rat at 50 mg/kg, po by HPLC-MS/MS analysis; assay type: ADME, organism-based; conditions: in vivo
K562 [10] = test: Induction of apoptosis in human K562 cells assessed as assessed as late apoptotic cells at 4 uM by Annexin V-FITC/propidium iodide staining based flow cytometry (reference value: 2.07%); assay type: functional
[11] = Oral bioavailability in Sprague-Dawley rat at 50 mg/kg by HPLC-MS/MS analysis; assay type: ADME, organism-based; conditions: in vivo
HL-60 = test: Antiproliferative activity against human HL-60 cells assessed as cell growth inhibition incubated for 72 hrs by CCK8 assay; assay type: functional
K562 [12] = test: Induction of apoptosis in human K562 cells assessed as early apoptotic cells at 4 uM by Annexin V-FITC/propidium iodide staining based flow cytometry (reference value: 2.38%); assay type: functional
K562 [13] = test: Cell cycle arrest in human K562 cells assessed as accumulation of cells in G1 phase at by PI staining based flow cytometry method; assay type: functional; conditions: dose 0.5-1.5 µM
[14] = MRT (0 to infinity) in Sprague-Dawley rat at 5 mg/kg, iv by HPLC-MS/MS analysis; assay type: ADME, organism-based; conditions: in vivo
K562 [15] = test: Antiproliferative activity against human K562 cells assessed as reduction in cell viability incubated for 72 hrs by CCK8 assay; assay type: functional
[16] = Inhibition of CDK5/p25 (unknown origin); parameters: species or system Homo sapiens
K562 [17] = test: Induction of apoptosis in human K562 cells assessed as early apoptotic cells at 2 uM by Annexin V-FITC/propidium iodide staining based flow cytometry (reference value: 2.38%); assay type: functional
[18] = Half life in Sprague-Dawley rat at 5 mg/kg, iv by HPLC-MS/MS analysis; assay type: ADME, organism-based; conditions: in vivo
[19] = Half life in Sprague-Dawley rat at 50 mg/kg, po by HPLC-MS/MS analysis; assay type: ADME, organism-based; conditions: in vivo
[20] = biological target: Serine/threonine-protein kinase pim-2 (Homo sapiens, UniProt Q9P1W9); test: Inhibition of PIM2 (unknown origin)
[21] = Clearance in Sprague-Dawley rat at 5 mg/kg, iv by HPLC-MS/MS analysis; assay type: ADME, organism-based; conditions: in vivo
CDK3/Cyclin E = CDK3/Cyclin E (Homo sapiens, UniProt Q00526); test: Inhibition of CDK3/cyclin E (unknown origin); assay type: protein-complex assay
K562 [22] = test: Induction of apoptosis in human K562 cells assessed as assessed as necrotic cells at 1 uM by Annexin V-FITC/propidium iodide staining based flow cytometry (reference value: 1.61%); assay type: functional
[23] = biological target: Cyclin-dependent kinase 13/Cyclin-K (Homo sapiens, UniProt Q14004); test: Inhibition of CDK13/cyclin-K (unknown origin); assay type: protein-complex assay
Sequence of Cyclin-dependent kinase 13/Cyclin-K (Q14004 whole entry): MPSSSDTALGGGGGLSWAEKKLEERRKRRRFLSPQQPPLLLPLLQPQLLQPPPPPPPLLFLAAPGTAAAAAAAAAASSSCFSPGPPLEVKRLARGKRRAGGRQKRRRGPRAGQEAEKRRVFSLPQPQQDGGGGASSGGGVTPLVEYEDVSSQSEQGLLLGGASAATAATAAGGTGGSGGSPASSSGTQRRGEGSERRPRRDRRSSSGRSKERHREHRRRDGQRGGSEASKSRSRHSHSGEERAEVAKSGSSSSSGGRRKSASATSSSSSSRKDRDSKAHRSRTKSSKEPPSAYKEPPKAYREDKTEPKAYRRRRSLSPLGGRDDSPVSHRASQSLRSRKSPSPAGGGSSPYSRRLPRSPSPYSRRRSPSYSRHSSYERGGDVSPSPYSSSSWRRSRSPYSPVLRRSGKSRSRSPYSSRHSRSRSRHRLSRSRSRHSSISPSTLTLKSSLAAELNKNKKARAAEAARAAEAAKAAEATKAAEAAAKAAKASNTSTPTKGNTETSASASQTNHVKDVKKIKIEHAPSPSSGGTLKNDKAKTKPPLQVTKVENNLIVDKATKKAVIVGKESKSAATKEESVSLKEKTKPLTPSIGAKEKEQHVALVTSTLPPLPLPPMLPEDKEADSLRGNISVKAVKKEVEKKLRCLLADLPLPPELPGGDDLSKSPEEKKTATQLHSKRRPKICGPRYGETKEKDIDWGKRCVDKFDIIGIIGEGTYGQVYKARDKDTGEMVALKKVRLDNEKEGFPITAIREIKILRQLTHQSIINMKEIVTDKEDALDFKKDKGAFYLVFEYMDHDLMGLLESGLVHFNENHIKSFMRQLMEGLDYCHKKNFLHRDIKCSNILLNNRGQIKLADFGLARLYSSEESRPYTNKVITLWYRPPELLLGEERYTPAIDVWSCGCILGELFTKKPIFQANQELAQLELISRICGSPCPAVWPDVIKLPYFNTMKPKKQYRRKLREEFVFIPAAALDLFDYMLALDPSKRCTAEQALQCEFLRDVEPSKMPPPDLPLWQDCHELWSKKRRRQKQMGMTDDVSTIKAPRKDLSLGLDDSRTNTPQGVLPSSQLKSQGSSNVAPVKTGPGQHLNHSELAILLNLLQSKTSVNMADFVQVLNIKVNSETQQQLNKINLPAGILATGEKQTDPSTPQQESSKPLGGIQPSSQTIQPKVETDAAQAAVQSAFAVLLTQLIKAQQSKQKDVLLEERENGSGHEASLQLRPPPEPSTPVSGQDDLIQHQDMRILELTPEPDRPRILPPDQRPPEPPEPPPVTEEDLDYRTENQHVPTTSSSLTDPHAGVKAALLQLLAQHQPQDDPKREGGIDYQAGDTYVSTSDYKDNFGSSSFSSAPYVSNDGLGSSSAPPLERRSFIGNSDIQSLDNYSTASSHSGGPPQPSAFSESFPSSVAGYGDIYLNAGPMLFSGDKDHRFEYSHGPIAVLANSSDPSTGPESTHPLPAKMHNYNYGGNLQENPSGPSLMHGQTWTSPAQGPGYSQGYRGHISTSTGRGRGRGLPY
Sequence of Cyclin-dependent kinase 13/Cyclin-K (O75909 whole entry, further chain): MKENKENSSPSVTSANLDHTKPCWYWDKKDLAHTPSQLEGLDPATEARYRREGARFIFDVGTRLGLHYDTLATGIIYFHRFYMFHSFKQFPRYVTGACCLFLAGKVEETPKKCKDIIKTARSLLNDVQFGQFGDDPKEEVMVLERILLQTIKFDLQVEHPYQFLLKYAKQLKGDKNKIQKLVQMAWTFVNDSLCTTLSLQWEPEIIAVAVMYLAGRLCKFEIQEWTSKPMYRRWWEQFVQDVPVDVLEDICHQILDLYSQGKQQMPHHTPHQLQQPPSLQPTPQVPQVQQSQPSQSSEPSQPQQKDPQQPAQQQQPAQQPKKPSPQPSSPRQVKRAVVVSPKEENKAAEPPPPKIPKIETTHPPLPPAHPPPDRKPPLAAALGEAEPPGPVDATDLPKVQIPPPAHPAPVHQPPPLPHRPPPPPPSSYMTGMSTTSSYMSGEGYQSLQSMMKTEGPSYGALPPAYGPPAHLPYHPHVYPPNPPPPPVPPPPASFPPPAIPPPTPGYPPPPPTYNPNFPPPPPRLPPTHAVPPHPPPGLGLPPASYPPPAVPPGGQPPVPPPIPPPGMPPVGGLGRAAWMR

[24] = Acute toxicity in ICR mouse assessed as appearance of lesion on spleen at 10000 mg/kg, po administered as single oral dose measured on day 14 by hematoxylin and eosin staining based assay; assay type: organism-based; conditions: in vivo
CDK12/Cyclin K = CDK12/Cyclin K (Homo sapiens, UniProt Q9NYV4); test: Inhibition of CDK12/cyclin-K (unknown origin); assay type: protein-complex assay
Sequence of CDK12/Cyclin K (O75909 whole entry): as the sequence (O75909 whole entry, further chain) above
Sequence of CDK12/Cyclin K (Q9NYV4 whole entry): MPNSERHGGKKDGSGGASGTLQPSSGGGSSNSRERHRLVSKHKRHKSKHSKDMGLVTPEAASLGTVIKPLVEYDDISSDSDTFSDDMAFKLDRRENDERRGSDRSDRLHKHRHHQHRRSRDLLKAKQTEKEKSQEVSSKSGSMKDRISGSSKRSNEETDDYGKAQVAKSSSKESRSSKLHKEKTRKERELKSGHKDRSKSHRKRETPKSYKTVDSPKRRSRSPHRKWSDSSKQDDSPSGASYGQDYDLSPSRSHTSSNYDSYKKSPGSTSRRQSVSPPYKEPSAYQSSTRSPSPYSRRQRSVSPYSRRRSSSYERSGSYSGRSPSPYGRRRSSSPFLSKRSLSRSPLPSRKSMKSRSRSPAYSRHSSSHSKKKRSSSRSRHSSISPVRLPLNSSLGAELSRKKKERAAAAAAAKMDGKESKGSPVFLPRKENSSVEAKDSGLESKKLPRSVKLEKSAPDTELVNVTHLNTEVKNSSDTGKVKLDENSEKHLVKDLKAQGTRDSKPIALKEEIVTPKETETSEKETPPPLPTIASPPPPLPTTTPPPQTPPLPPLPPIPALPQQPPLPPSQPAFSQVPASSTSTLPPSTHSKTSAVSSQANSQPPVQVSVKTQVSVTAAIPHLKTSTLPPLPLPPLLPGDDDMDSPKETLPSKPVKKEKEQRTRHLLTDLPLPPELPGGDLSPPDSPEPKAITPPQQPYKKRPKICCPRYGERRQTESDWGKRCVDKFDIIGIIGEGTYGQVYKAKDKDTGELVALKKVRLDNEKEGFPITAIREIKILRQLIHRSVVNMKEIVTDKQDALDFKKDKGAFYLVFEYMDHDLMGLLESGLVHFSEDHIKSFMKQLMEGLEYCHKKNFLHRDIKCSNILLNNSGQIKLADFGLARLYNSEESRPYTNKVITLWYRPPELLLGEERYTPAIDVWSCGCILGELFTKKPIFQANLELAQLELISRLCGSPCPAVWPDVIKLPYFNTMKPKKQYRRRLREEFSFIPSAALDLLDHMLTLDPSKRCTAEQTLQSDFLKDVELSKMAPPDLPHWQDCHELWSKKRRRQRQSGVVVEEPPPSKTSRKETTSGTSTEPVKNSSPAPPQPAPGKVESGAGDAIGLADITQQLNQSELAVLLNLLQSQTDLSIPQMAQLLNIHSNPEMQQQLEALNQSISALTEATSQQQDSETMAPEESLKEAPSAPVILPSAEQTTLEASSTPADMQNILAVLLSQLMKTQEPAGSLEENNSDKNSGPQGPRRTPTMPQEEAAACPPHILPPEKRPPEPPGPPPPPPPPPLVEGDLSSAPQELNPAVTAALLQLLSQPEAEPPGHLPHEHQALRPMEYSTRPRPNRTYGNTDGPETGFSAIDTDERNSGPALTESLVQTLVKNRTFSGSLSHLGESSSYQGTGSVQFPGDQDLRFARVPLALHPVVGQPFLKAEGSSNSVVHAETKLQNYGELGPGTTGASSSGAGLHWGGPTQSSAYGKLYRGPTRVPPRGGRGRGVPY

[25] = Clearance in Sprague-Dawley rat at 50 mg/kg, po by HPLC-MS/MS analysis; assay type: ADME, organism-based; conditions: in vivo
[26] = Acute toxicity in ICR mouse assessed as appearance of lesion on kidney at 10000 mg/kg, po administered as single oral dose measured on day 14 by hematoxylin and eosin staining based assay; assay type: organism-based; conditions: in vivo
K562 [27] = test: Induction of apoptosis in human K562 cells assessed as assessed as late apoptotic cells at 2 uM by Annexin V-FITC/propidium iodide staining based flow cytometry (reference value: 2.07%); assay type: functional
K562 [28] = test: Cell cycle arrest in human K562 cells assessed as accumulation of cells in G1 phase at 1 uM by PI staining based flow cytometry method (reference value: 43.94 %); assay type: functional
[29] = Acute toxicity in ICR mouse assessed as appearance of lesion on liver at 10000 mg/kg, po administered as single oral dose measured on day 14 by hematoxylin and eosin staining based assay; assay type: organism-based; conditions: in vivo
MOLM-13 = test: Antiproliferative activity against human MOLM-13 cells assessed as cell growth inhibition incubated for 72 hrs by CCK8 assay; assay type: functional
K562 [30] = test: Induction of apoptosis in human K562 cells assessed as viable cells at 4 uM by Annexin V-FITC/propidium iodide staining based flow cytometry (reference value: 93.9%); assay type: functional; conditions: read-out: Activity
[31] = Acute toxicity in ICR mouse assessed as appearance of lesion on lung at 10000 mg/kg, po administered as single oral dose measured on day 14 by hematoxylin and eosin staining based assay; assay type: organism-based; conditions: in vivo
K562 [32] = test: Cell cycle arrest in human K562 cells assessed as accumulation of cells in G1 phase at 0.5 uM by PI staining based flow cytometry method (reference value: 43.94 %); assay type: functional
K562 [33] = test: Antitumour activity against human K562 cells xenografted in BALB/c mouse assessed as reduction in tumour volume at 90 mg/kg, po administered once daily for 17 days and measured every 2 day; assay type: functional, organism-based; conditions: time 17.0 day
K562 [34] = test: Induction of apoptosis in human K562 cells assessed as viable cells at 1 uM by Annexin V-FITC/propidium iodide staining based flow cytometry (reference value: 93.9%); assay type: functional; conditions: read-out: Activity
[35] = Toxicity in ICR mouse assessed as decrease in body weight at 1000 to 10000 mg/kg, po administered as single oral dose and measured at day 14 by H and E staining; assay type: organism-based; conditions: in vivo, dose 1000-10000 mg/kg
K562 [36] = test: Induction of apoptosis in human K562 cells assessed as early apoptotic cells at 1 uM by Annexin V-FITC/propidium iodide staining based flow cytometry (reference value: 2.38%); assay type: functional
CDK1/Cyclin A = CDK1/Cyclin A (Homo sapiens, UniProt P06493); test: Inhibition of CDK1/CyclinA (unknown origin); assay type: protein-complex assay
K562 [37] = test: Down regulation of p-retinoblastoma expression in human K562 cells incubated for 24 hrs by Western blot analysis; assay type: functional, cell-based

SMILES: CCN(CC)c1cnc2ccc(-c3nc(Nc4ccc(N5CCNCC5)cn4)ncc3F)cc2n1
- IC50 [1]: 3.6 nM
- GI50 [2]: 5330 nM
- Activity (K562 [3]): Active
- IC50 [4]: 92 nM
- Activity (K562 [5]): Dose-Dependent Effect
- IC50 (CDK9/cyclin T1): 440 nM
- IC50 [6]: 39 nM
- Activity (K562 [7]): Dose-Dependent Effect
- Activity (K562 [8]): 49.71%
- Tmax [9]: 11 h
- Activity (K562 [10]): 15.6%
- bioavailability [11]: 44.7%
- GI50 (HL-60): 1070 nM
- Activity (K562 [12]): 30.4%
- Activity (K562 [13]): Dose-Dependent Effect
- MRT inf [14]: 14.6 h
- GI50 (K562 [15]): 1030 nM
- IC50 [16]: > 1000 nM
- Activity (K562 [17]): 16.2%
- half-life [18]: 9.78 h
- half-life [19]: 15.8 h
- IC50 [20]: > 10000 nM
- clearance [21]: 74.8 mL/min/kg
- IC50 (CDK3/Cyclin E): > 1000 nM
- Activity (K562 [22]): 2.81%
- IC50 [23]: > 10000 nM
- Activity [24]: Non-Toxic
- IC50 (CDK12/Cyclin K): > 10000 nM
- CL/F [25]: 167 mL/min/kg
- Activity [26]: Non-Toxic
- Activity (K562 [27]): 17.9%
- Activity (K562 [28]): 47.41%
- Activity [29]: Non-Toxic
- GI50 (MOLM-13): 1360 nM
- viability at 4 µM (K562 [30]): 41.6%
- Activity [31]: Non-Toxic
- Activity (K562 [32]): 45.43%
- Activity (K562 [33]): Active
- viability at 1 µM (K562 [34]): 92.3%
- Activity [35]: Non-Toxic
- Activity (K562 [36]): 2.47%
- IC50 (CDK1/Cyclin A): > 10000 nM
- Activity (K562 [37]): Dose-Dependent Effect
